The test system of data set [1] is TNF-α release from hPBMCs. Kind of data set: Assay for Inhibition of TNF-α Release from hPBMCs (IFNg/LPS stimulated, ELISA). It counts as cell-based. Particulars: Homo sapiens, 3 h, IFNg (100 U/ml) and LPS, three hours, TNF-α in supernatant by ELISA, read-out: IC50 for suppression of TNF release. On the procedure:
Assay for Inhibition of TNF-α Release from hPBMCs
Human peripheral blood mononuclear cells (hPBMCs) are prepared from the peripheral blood of healthy volunteers using ficoll-hypaque density separation according to the method of Hansell et al., J. Imm. Methods (1991) 145: 105. and used at a concentration of 10^5 cells/well in RPMI 1640 plus 10% FCS. Cells are incubated with serial dilutions of the test compounds for 30 minutes at 37° C. prior to the addition of IFNg (100 U/ml) and LPS ([…]) and subsequently further incubated for three hours. Incubation is […] by centrifugation at 1400 RPM for 10 min. TNF-α in the supernatant is measured using a commercial ELISA (Innotest hTNFa, available from Innogenetics N.V., Zwijnaarde, Belgium). Agents of the Invention are tested at concentrations of from […]. Exemplified Agents of the Invention typical suppress TNF release in this assay with an IC50 of from about 500 nM to about 10 nM or less when tested in this assay.

Another data set deals with T1, p38 MAP kinase (Mus musculus, UniProt P47811).
T1 construct: a fusion protein comprising full length murine p38 MAP kinase and a His tag; host or cells: E. coli
Kind of data set: p38 MAP Kinase Assay (phosphorylation of GST-ATF-2, ELISA detection). The note with it: His-p38 MAP kinase, GST-ATF-2 substrate, ATP 120 μM, 1 h at 37° C.; read-out: IC50 for p38 MAP kinase inhibition. The format is biochemical, murine. On the procedure: The substrate (GST-ATF-2; a fusion protein comprising amino acids 1-109 of ATF-2 and the GST protein obtained by expression in E. coli) is coated onto the webs of microtiter plates (50 μl/well; 1 μg/ml in PBS/0.02% Na azide) overnight at 4° C. The following day, the microtiter plates are washed four times with PBS/0.5% Tween 20/0.02% Na azide and are blocked with PBS/2% BSA/0.02% Na Azide for 1 h at 37° C. Plates are washed again 4 times with PBS/0.5% Tween 20/0.02% Na azide. The kinase cascade reaction is then started by adding the following reactants in 10 μl aliquots to a final reaction volume of 50 μl.
1. Agents of the Invention titrated from 10 to 0.001 μM in 10-fold dilutions or solvent (DMSO) or H2O.
2. Kinase buffer (5×); pH 7.4; 125 mM Hepes (Stock at 1M; Gibco #15630-056), 125 mM β-glycerophosphate (Sigma #G-6251):125 mM MgCl2 (Merck #5833); 0.5 mM Sodium orthovanadate (Sigma #5-6508), 10 mM DTT (Boehringer Mannheim #708992). The (5×) kinase buffer must be prepared fresh the day of the assay from 5× stock solutions kept at RT. DTT is kept at −20° C. and is added as the last reagent.
3. His-p38 MAP kinase (10 ng/well; Novartis—a fusion protein comprising full length murine p38 MAP kinase and a His tag, obtained by expression in E. coli)
4. cold ATP (final concentration 120 μM; Sigma #A-9187)
After 1 h at 37° C. the kinase reaction is terminated by washing the plates four times as previously described. Phosphorylated GST-ATF-2 is then detected by adding:
1. the PhosphoPlus ATF-2 (Thr71) Antibody (50 μl/well; 1/1000 final dilution in PBS/2% BSA/0.02% Na Azide; New England Biolabs #9221L) for 90 min at RT.
2. Biotin labelled goat-anti-rabbit IgG (50 μl/well; 1/3000 final dilution in PBS/2% BSA/0.02% Na Azide; Sigma #B-9642) for 90 min at RT.
3. Streptavidin-alkaline phosphatase (50 μl/well; 1/5000 dilution in PBS/2% BSA/0.02% Na Azide; Jackson Immunoresearch #016-050-84) for 30 min at RT.
4. Substrate (100 μl/well; Sigma 104 Phosphatase substrate tablets, 5 mg/tablet; #104-105; 1 mg/ml in substrate buffer, Diethanolamine (97 ml/l; Merck #803116)+MgCl2.6H2O (100 mg/l; Merck #5833)+Na Azide (0.2 g/l)+HCl 1M to pH 9.8) 30 min at RT.
After step 1, 2 and 3 the microtiter plates are washed four times with PBS/0.5% Tween 20/0.02% Na azide. After step 4, the plates are read in a Bio-Rad microplate reader in a dual wavelength mode (measurement filter […] and reference filter […]). The background value (without ATP) is subtracted and IC50 values are calculated using the Origin computer program (4 parameter logistic function).
Background: In an ELISA, binding on a coated surface is turned into a signal by an enzyme label.

The results in this text go back to US6579874B2, “Substituted azoles” (Novartis AG, priority 1999, dated 2003).

Structures can show the parent of a compound that is named as a salt.

T1 sequence (P47811 whole entry, the tested form may be a part): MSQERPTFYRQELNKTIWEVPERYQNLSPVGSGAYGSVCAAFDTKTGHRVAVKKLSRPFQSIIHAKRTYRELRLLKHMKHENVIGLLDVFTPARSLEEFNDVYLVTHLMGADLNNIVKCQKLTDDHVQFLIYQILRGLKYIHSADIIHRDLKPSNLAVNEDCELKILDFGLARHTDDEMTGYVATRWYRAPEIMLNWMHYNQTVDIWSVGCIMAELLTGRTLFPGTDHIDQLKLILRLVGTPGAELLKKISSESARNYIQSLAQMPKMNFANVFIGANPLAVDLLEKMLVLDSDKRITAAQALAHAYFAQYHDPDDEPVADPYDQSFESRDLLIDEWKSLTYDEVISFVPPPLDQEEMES

As a reminder, the melting point is the temperature, or range, at which the solid turns liquid. Consider `CN1CCC(O)(c2cn(-c3ccnc(NC4CCCC4)n3)c(-c3cccc(C(F)(F)F)c3)n2)CC1` (as salt: fumarate) [Example 33, 2-(3-Trifluoromethylphenyl)-4-(1-methyl-4-hydroxypiperidin-4-yl)-1-(2-cyclopentylamino-4-pyrimidyl)imidazole], for which the melting point lay within 189 to 193 °C.

What is called IC50 is the midpoint of a concentration-inhibition curve. Consider `C[C@H](Nc1nccc(-c2oc(C3CCN(C)CC3)nc2-c2ccc(F)cc2)n1)c1ccccc1` [Example 4], for which the IC50 in data set [1] fell in the range of 1 to 10 nM. On the same count and under the same terms, as for `C[C@H](Nc1nccc(-c2oc(C3CCNCC3)nc2-c2ccc(F)cc2)n1)c1ccccc1` [Example 8, 4-(4-Fluorophenyl)-5-(2-[1-(S)-phenylethyl]amino-4-pyrimidyl)-2-(4-NH-piperidine-1-yl)oxazole], the figure is 1 to 10 nM.

For `Fc1ccc(-c2nc(C3CCNCC3)oc2-c2ccnc(NCC3CC3)n2)cc1` [Example 9, 4-(4-Fluorophenyl)-5-(2-cyclopropylmethylamino-4-pyrimidyl)-2-(4-NH-piperidin-1-yl)oxazole], the IC50 (on p38 MAP kinase; in data set [1]) was 1 to 10 nM in each case. Take `C[C@H](Nc1cc(-c2oc(C3(O)CCN(C)CC3)nc2-c2ccc(F)cc2)ccn1)c1ccccc1` [Example 14]: on p38 MAP kinase, the IC50 was 1 to 10 nM. On the same count and under the same terms, to `CN1CCC(O)(c2nc(-c3ccc(F)cc3)c(-c3ccnc(NCC4CC4)c3)o2)CC1` [Example 15] belongs 1 to 10 nM.

Consider `Fc1ccc(-c2nc(C3CCNCC3)oc2-c2ccnc(NCC3CC3)c2)cc1` [Example 19, 4-(4-Fluorophenyl)-2-(4-NH-piperidine-1-yl)-5-(2-cyclopropylmethylamino-4-pyridyl)oxazole], for which the IC50 in data set [1] fell in the range of 1 to 10 nM. Still for that read-out and setting: as for `CC(C)(O)CN1CCC(c2nc(-c3ccc(F)cc3)c(-c3ccnc(NCC4CC4)c3)o2)CC1` [Example 20, 4-(4-Fluorophenyl)-2-(4-N-(2-hydroxy-2-methyl)propylpiperidine-1-yl)-5-(2-cyclopropylmethylamino-4-pyridyl)oxazole], the figure is 1 to 10 nM; as for `CC(C)(O)CN1CCC(c2nc(-c3ccc(F)cc3)c(-c3ccnc(NC4CCCCC4)c3)o2)CC1` [Example 23, 4-(4-Fluorophenyl)-2-(4-N-(2-hydroxy-2-methyl)propylpiperidine-1-yl)-5-(2-cyclohexylamino-4-pyridyl)oxazole], 1 to 10 nM; as for `CN1CCC(O)(c2cn(-c3ccnc(NC4CCCCC4)n3)c(-c3ccc(F)cc3)n2)CC1` [Example 31], 1 to 10 nM. On the same count and under the same terms, as for `CN1CCC(O)(c2cn(-c3ccnc(NC4CC4)n3)c(-c3cccc(C(F)(F)F)c3)n2)CC1` [Example 32, 2-(3-Trifluoromethylphenyl)-4-(1-methyl-4-hydroxypiperidin-4-yl)-1-(2-cyclopropylamino-4-pyrimidyl)imidazole], the figure is 1 to 10 nM. On the same count and under the same terms, to `CN1CCC(O)(c2cn(-c3ccnc(NC4CCCC4)n3)c(-c3cccc(C(F)(F)F)c3)n2)CC1` [Example 33, 2-(3-Trifluoromethylphenyl)-4-(1-methyl-4-hydroxypiperidin-4-yl)-1-(2-cyclopentylamino-4-pyrimidyl)imidazole] belongs 1 to 10 nM.

In the case of `C[C@H](Nc1nccc(-n2cc(-c3ccncc3)nc2-c2ccc(F)cc2)n1)c1ccccc1` [Example 35, 2-(4-Fluorophenyl)-1-(2-[1-(S)-phenyl-ethyl]amino-4-pyrimidyl) 4-(4-pyridyl)imidazole], the concentration for half-maximal inhibition (IC50) (on p38 MAP kinase; in data set [1]) was 1 to 10 nM each time.

Consider `C[C@H](Nc1nccc(-n2cc(-c3cccc(Cl)c3)nc2-c2ccc(F)cc2)n1)c1ccccc1` [Example 49, 2-(4-Fluorophenyl)-1-(2-[1-(S)-phenyl-ethyl]amino-4-pyrimidyl)-4-(3-chlorophenyl)imidazole], for which the IC50 (at p38 MAP kinase; in data set [1]) was 1 to 10 nM each time. Regarding `C[C@H](Nc1nccc(-n2cc(/C=N/NC(=N)N)nc2-c2ccc(F)cc2)n1)c1ccccc1` [Example 50, 2-(4-Fluorophenyl)-1-(2-[1-(S)-phenyl-ethyl]amino-4-pyrimidyl)-4-methyleneaminoguanidinyl-imidazole], the IC50 in data set [1] was in the range of 1 to 10 nM.

On to `CCOC(=O)N1CCC(c2cn(-c3ccnc(N[C@@H](C)c4ccccc4)n3)c(-c3ccc(F)cc3)n2)CC1` [Example 51, 2-(4-Fluorophenyl)-1-(2-(1-(S)-phenylethyl)amino-4-pyrimidyl)-4-(4-ethoxycarbonyl)piperidine-1-yl Imidazole], for which the IC50 (on p38 MAP kinase; in data set [1]) was 1 to 10 nM in each case. `C[C@H](Nc1nccc(-n2cc(C3CCNCC3)nc2-c2ccc(F)cc2)n1)c1ccccc1` [Example 52]: the IC50 (at p38 MAP kinase; in data set [1]) was 1 to 10 nM each time. For `C[C@H](Nc1nccc(-n2cc(C3CCN(C=O)CC3)nc2-c2ccc(F)cc2)n1)c1ccccc1` [Example 53, 2-(4-Fluorophenyl)-1-(2-(1-(S)-phenylethyl)amino-4-pyrimidyl)-4-(4-formyl)-piperidine-1-yl Imidazole], the 50% inhibitory concentration (IC50) in data set [1] lay within 1 to 10 nM.

Turning to `C[C@H](Nc1nccc(-n2cc(C3CCN(CC(C)(C)O)CC3)nc2-c2ccc(F)cc2)n1)c1ccccc1` [Example 54], the IC50 in data set [1] lay in the range of 1 to 10 nM. Consider `CC(C)(O)CN1CCC(c2cn(-c3ccnc(NC4CCCC4)n3)c(-c3ccc(F)cc3)n2)CC1` [Example 55], for which, in data set [1], the IC50 was in the range of 1 to 10 nM. Still for that read-out and setting: to `C[C@H](Nc1nccc(-n2cc(C3CCN(C)CC3)nc2-c2ccc(F)cc2)n1)c1ccccc1` [Example 56, 2-(4-Fluorophenyl)-1-(2-(1-(S)-phenylethyl)amino-4-pyrimidyl)-4-(4-methyl)-piperidine-1-yl Imidazole] belongs 1 to 10 nM. As for `C[C@H](Nc1nccc(-n2cc([C@]3(O)C[C@H]4CC[C@@H](C3)N4C(=O)OC(C)(C)C)nc2-c2ccc(F)cc2)n1)c1ccccc1` [Example 59, 2-(4-Fluorophenyl)-1-(2-(1-(S)-phenylethyl)amino-4-pyrimidyl)-4-(3a-hydroxy-N-tert.butyloxycarbonylnortropan-3b-yl)imidazole], the IC50 in data set [1] lay in the range of 1 to 10 nM. For the compound `C[C@H](Nc1nccc(-n2cc([C@]3(O)C[C@H]4CC[C@@H](C3)N4)nc2-c2ccc(F)cc2)n1)c1ccccc1` [Example 60, 2-(4-Fluorophenyl)-1-(2-(1-(S)-phenylethyl)amino-4-pyrimidyl)-4-(3a-hydroxy-nortropan-3b-yl)imidazole], the half-maximal inhibitory concentration (IC50) in data set [1] was 1 to 10 nM.
